In patent publication US8063220B2, “Sulfonyl-quinoline derivatives” (Richter Gedeon Nyrt., priority 2007, dated 2011):

Key:
rat mGluR1 = target: T1, rat mGluR1 (Rattus norvegicus, UniProt P23385); assay: MGluR1 receptor binding test ([3H]R214127 displacement, rat cerebellar membrane preparation); details: rat mGluR1, [3H]R214127 3 nM; read-out: mGlu1 Ki
T1 construct: rat cerebellar membrane preparation was used; from tissue; host or cells: rat cerebellum (membrane preparation)
Experimental: MGluR1 receptor binding tests were performed according to modified method of Lavreysen et al. (Mol. Pharm., 2003, 63, 1082). Based on the high homology between the human and rat mGluR1 receptors, rat cerebellar membrane preparation was used to determine the binding characteristics of reference compounds and novel compounds to the rat mGluR1. [3H]R214127 (3 nM) was used as radioligand and the nonspecific binding was determined in the presence of 1 μM of R214127.
IC-50 values were determined from displacement curves by nonlinear regression analysis and were converted to Ki values using the equation method of Cheng and Prusoff (Biochem. Pharmacol., 1973, 22, 3099).

rat mGluR5 = target: T2, rat mGluR5 (Rattus norvegicus, UniProt P31424); assay: MGluR5 receptor binding test ([3H]-M-MPEP displacement, rat cerebro-cortical membrane preparation); details: rat mGluR5, [3H]-M-MPEP 2 nM; read-out: mGlu5 Ki
T2 construct: Rat cerebro-cortical membrane preparation was used; from tissue; host or cells: rat cerebral cortex (membrane preparation)
T2 sequence (P31424 21-1203): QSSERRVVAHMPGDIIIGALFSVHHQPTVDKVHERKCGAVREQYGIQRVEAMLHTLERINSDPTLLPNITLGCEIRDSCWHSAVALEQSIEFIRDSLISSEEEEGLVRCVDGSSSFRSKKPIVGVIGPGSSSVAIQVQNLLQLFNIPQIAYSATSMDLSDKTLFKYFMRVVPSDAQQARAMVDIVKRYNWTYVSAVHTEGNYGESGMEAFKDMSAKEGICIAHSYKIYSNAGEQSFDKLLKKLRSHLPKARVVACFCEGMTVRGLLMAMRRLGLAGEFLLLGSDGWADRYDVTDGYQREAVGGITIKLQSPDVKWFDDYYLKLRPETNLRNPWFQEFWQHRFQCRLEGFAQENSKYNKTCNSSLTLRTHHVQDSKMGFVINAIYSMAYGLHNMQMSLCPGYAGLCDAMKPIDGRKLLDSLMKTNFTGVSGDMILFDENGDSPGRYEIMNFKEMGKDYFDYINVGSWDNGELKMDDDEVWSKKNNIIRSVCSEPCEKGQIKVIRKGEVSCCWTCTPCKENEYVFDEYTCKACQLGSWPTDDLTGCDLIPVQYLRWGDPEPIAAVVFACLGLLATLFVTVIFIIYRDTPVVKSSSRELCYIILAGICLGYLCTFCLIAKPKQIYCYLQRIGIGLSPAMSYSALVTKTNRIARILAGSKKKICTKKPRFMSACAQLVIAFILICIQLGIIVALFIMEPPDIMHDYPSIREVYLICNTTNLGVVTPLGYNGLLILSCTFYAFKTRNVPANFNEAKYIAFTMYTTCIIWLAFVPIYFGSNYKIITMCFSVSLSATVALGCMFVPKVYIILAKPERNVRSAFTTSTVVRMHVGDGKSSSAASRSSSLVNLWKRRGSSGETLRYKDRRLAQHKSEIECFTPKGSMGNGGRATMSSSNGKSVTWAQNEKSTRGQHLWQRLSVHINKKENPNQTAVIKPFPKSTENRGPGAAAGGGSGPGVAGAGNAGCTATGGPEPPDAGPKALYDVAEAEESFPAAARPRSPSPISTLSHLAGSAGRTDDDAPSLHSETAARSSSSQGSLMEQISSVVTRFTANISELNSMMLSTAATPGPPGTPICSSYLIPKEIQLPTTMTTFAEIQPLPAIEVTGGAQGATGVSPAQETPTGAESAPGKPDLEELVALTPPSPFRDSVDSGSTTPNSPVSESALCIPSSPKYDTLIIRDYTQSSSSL
Experimental: Rat cerebro-cortical membrane preparation was used to determine the binding characteristics of reference compounds and novel compounds to the rat mGluR5. The A18 cell line expressing hmGluR5a (purchased from Euroscreen) was used to determine binding characteristics of the chemical compounds to the human mGluR5a receptor. [3H]-M-MPEP (2 nM) was used as radioligand. The nonspecific binding was determined in the presence of 10 μM M-MPEP.

T1 sequence (P23385 19-1199): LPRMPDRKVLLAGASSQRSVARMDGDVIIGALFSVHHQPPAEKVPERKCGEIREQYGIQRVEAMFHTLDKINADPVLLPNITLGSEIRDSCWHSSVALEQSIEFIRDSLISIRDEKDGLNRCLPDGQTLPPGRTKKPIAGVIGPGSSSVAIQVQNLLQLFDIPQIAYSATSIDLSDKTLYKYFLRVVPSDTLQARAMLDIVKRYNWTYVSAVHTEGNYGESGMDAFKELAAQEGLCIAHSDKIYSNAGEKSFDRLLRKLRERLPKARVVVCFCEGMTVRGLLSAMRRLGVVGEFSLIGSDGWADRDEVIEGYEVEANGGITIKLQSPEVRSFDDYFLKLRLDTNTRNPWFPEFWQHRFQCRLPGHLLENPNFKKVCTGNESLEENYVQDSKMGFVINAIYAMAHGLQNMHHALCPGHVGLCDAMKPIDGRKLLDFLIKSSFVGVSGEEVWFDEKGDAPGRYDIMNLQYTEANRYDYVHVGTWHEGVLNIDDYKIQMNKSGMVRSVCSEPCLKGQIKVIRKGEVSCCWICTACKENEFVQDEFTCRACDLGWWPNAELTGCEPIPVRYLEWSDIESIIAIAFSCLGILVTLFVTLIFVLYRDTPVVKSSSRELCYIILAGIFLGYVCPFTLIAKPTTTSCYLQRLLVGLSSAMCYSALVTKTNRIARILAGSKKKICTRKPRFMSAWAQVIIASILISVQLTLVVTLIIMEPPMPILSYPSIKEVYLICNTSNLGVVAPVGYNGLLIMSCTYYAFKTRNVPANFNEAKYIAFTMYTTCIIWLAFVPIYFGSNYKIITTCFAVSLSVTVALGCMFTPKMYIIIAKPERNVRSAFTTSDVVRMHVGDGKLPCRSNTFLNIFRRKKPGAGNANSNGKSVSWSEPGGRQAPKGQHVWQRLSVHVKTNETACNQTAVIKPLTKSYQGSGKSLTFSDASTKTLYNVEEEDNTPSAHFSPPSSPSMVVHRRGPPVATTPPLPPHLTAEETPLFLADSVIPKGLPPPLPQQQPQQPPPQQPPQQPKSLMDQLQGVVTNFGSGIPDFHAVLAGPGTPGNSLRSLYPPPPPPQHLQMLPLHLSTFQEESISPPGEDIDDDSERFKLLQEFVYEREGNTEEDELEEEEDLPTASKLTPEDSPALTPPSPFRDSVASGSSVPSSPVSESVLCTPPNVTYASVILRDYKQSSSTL

Structure (SMILES)	Ki (rat mGluR1) [nM]	Ki (rat mGluR5) [nM]
O=S(=O)(c1cc(F)cc(F)c1)c1cnc2cc(F)ccc2c1-c1ccc(Cl)cc1 [Compound 35, 4-(4-chloro-phenyl)-3-(3,5-difluoro-benzenesulfonyl)-7-fluoro-quinoline]	> 500	< 200
O=S(=O)(c1ccc(F)c(F)c1)c1cnc2ccccc2c1-c1ccc(Cl)c(Cl)c1 [Compound 260]	> 500	< 200
N#Cc1cc(S(=O)(=O)c2cnc3ccccc3c2-c2cccc(Cl)c2)ccc1F [Compound 217]	> 500	< 200
Cc1ccc(S(=O)(=O)c2cnc3cc(F)ccc3c2-c2ccc(F)cc2)cc1F [Compound 86]	> 500	< 200
O=S(=O)(c1cc(Cl)cc(Cl)c1)c1cnc2cc(F)ccc2c1-c1ccc(F)c(F)c1 [Compound 239]	> 500	< 200
N#Cc1cc(S(=O)(=O)c2cnc3cc(Cl)ccc3c2-c2ccc(F)cc2)ccc1F [Compound 276]	200 to 500	< 200
N#Cc1cc(F)cc(S(=O)(=O)c2cnc3ccccc3c2-c2cccc(Cl)c2)c1 [Compound 226]	> 500	< 200
O=S(=O)(c1ccc(Cl)c(F)c1)c1cnc2cc(F)c(Cl)cc2c1-c1ccc(Cl)cc1 [Compound 189]	> 500	< 200
O=S(=O)(c1cc(Cl)cc(Cl)c1)c1cnc2cc(Cl)ccc2c1-c1ccc(F)cc1 [Compound 178]	> 500	< 200
N#Cc1cc(F)cc(S(=O)(=O)c2cnc3cc(Cl)ccc3c2-c2ccc(Cl)cc2)c1 [Compound 269]	> 500	< 200
O=S(=O)(c1ccc(Cl)c(F)c1)c1cnc2cc(F)c(Cl)cc2c1-c1cccc(F)c1 [Compound 188]	> 500	200 to 500
O=S(=O)(c1ccc(F)c(F)c1)c1cnc2cc(F)ccc2c1-c1ccccc1F [Compound 261]	> 500	< 200
Cc1ccc(S(=O)(=O)c2cnc3ccc(F)cc3c2-c2ccc(F)cc2)cc1F [Compound 131]	> 500	< 200
O=S(=O)(c1cc(F)cc(F)c1)c1cnc2cc(Cl)ccc2c1-c1ccc(F)cc1 [Compound 181]	> 500	< 200
O=S(=O)(c1ccc(F)c(F)c1)c1cnc2cc(Cl)ccc2c1-c1cccc(F)c1 [Compound 170, 7-chloro-3-(3,4-difluoro-benzenesulfonyl)-4-(3-fluoro-phenyl)-quinoline]	> 500	< 200
O=S(=O)(c1ccc(F)c(F)c1)c1cnc2cc(F)ccc2c1-c1cccc(F)c1 [Compound 98]	200 to 500	< 200
O=S(=O)(c1cc(Cl)cc(Cl)c1)c1cnc2c(F)cccc2c1-c1cccc(Cl)c1 [Compound 158]	200 to 500	< 200
O=S(=O)(c1ccc(F)c(F)c1)c1cnc2ccc(F)cc2c1-c1cccc(F)c1 [Compound 150]	200 to 500	< 200
Cc1ccc(S(=O)(=O)c2cnc3cc(F)ccc3c2-c2cccc(F)c2)cc1C [Compound 18]	> 500	< 200
N#Cc1cc(C#N)cc(S(=O)(=O)c2cnc3cc(F)ccc3c2-c2ccc(F)c(F)c2)c1 [Compound 256]	> 500	< 200
O=S(=O)(c1ccc(F)cc1)c1cnc2ccc(F)cc2c1-c1cccc(Cl)c1 [Compound 24]	> 500	> 500
O=S(=O)(c1ccc(F)c(F)c1)c1cnc2cc(Cl)ccc2c1-c1ccc(F)cc1 [Compound 182]	> 500	< 200
O=S(=O)(c1cc(F)cc(F)c1)c1cnc2cc(F)ccc2c1-c1cccc(F)c1 [Compound 88]	200 to 500	< 200
O=S(=O)(c1cc(Cl)cc(Cl)c1)c1cnc2cc(Cl)ccc2c1-c1ccccc1F [Compound 255]	200 to 500	< 200
O=S(=O)(c1ccc(F)c(F)c1)c1cnc2c(F)cccc2c1-c1cccc(Cl)c1 [Compound 259]	> 500	< 200
COc1ccc(S(=O)(=O)c2cnc3c(F)cccc3c2-c2ccc(Cl)cc2)cc1 [Compound 54]	< 200	< 200
N#Cc1cc(S(=O)(=O)c2cnc3cc(F)ccc3c2-c2cccc(Cl)c2)ccc1F [Compound 235]	> 500	< 200
COc1cccc(-c2c(S(=O)(=O)c3cccc(C#N)c3)cnc3cc(F)ccc23)c1 [Compound 93]	> 500	< 200
COc1cccc(-c2c(S(=O)(=O)c3ccc(C)c(F)c3)cnc3ccc(F)cc23)c1 [Compound 130]	> 500	< 200
